# What was measured:
# NAcS D2-MSNs = test: electrically evoked EPSCs, whole-cell voltage clamp, NAcS D2-MSNs; format: cell-based, mice; conditions: D1-MSN 50-Hz stimulation
# NAcC D2-MSNs [1] = test: electrically evoked EPSCs, whole-cell voltage clamp, NAcC D2-MSNs; format: cell-based, mice; conditions: for EPSC amplitude, %baseline (block of stimulation-induced LLP) / EPSC amplitude, %baseline (block of substance-P-induced potentiation) / EPSC amplitude, %baseline (block of stimulation-induced potentiation): mean ± SEM; for effect of antagonist alone on synaptic properties: absence of other stimuli, Figures S2C–S2F
# NAcC D2-MSNs [2] = test: paired pulse ratios, NAcC D2-MSNs; format: cell-based, mice; conditions: D1-MSN 50-Hz stimulation with inhibitor; Figures S7A–S7D
# [3] = system: AMPAR currents on NAcC D2-MSNs; test: AMPAR current-voltage relationship; format: cell-based, mice; conditions: +40 mV; for inward rectification of AMPAR currents caused by stimulation: D1-MSN 50-Hz stimulation with inhibitor, Figures 7B, 7D, 7F, 7H
# NAcC ChAT neurons = test: ChAT neuron firing rate; format: cell-based, mice; conditions: for spontaneous ChAT firing rate in the absence of substance P: L-733,060 10 μM or aprepitant 1 μM, Figure S4I; for stimulation-enhanced ChAT firing rate: 50-Hz D1-MSN stimulation; for substance-P-enhanced ChAT firing rate: substance P 100 nM
# [4] = biological target: neurokinin 1 receptor (NK1R) (Homo sapiens, UniProt P25103); test: BRET assay, antagonist mode; format: biochemical; conditions: antagonist added 15 min before 100 nM substance P, Figure S4G
# neurokinin 1 receptor (NK1R), sequence (P25103 whole entry, species assumed): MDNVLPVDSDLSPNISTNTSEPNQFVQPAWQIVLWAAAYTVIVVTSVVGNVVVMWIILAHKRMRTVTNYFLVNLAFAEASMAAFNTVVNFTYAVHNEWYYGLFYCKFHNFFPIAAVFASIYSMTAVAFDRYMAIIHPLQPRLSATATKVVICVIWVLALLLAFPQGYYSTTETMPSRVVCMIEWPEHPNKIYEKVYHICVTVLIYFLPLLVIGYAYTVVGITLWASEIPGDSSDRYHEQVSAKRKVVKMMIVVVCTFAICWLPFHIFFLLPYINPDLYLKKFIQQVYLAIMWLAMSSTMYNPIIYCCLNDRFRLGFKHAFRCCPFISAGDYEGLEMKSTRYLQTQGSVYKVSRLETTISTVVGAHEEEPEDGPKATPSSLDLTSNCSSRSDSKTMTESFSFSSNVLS
# neurokinin 1 receptor (NK1R), sequence (P50148 whole entry partner, species assumed): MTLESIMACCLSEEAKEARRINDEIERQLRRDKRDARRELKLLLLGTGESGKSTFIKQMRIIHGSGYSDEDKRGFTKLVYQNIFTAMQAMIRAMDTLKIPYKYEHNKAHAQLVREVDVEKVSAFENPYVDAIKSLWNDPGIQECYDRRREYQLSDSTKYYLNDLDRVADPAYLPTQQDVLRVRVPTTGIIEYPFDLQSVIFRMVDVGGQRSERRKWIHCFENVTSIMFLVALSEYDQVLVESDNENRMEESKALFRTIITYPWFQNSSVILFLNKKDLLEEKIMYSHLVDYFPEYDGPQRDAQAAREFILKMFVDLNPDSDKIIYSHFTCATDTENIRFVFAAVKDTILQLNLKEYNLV
compound,measurement,setting,value
CC[N+](CC)(CCNC(=O)C(=O)NCC[N+](CC)(CC)Cc1ccccc1Cl)Cc1ccccc1Cl [ambenonium],stimulation-induced depression on NAcS D2-MSNs,"NAcS D2-MSNs; ambenonium 40 nM (acetylcholinesterase block), Figure S6G",did not alleviate the depression
"CC(=O)C1=C(O)[C@@H]2[C@H]3c4c[nH]c5cccc(c45)C[C@H]3C(C)(C)N2C1=O [CPA, cyclopiazonic acid]","EPSC amplitude, %baseline (block of stimulation-induced LLP)","NAcC D2-MSNs [1]; CPA, depletion of calcium stores, D1-MSN 50-Hz stimulation, n = 8, p > 0.05, Figure 7G",80.18% ± 7.07%
same,paired pulse ratio change after stimulation,NAcC D2-MSNs [2],significantly increased
same,inward rectification of AMPAR currents caused by stimulation,[3],prevented inward rectification
COc1ccc2c(c1)CC[C@@H]1[C@@H]2CC[C@]2(C)[C@@H](NCCCCCCN3C(=O)C=CC3=O)CC[C@@H]12 [U-73122],"EPSC amplitude, %baseline (block of stimulation-induced LLP)","NAcC D2-MSNs [1]; U-73122 3 μM, D1-MSN 50-Hz stimulation, n = 9, p < 0.05, Figure 7C",66.06% ± 8.70%
same,paired pulse ratio change after stimulation,NAcC D2-MSNs [2],significantly increased
same,inward rectification of AMPAR currents caused by stimulation,[3],prevented inward rectification
"O=C(O)CN(CC(=O)O)c1ccccc1OCCOc1ccccc1N(CC(=O)O)CC(=O)O [BAPTA, 1,2-bis(o-aminophenoxy)ethane-N,N,N′,N′-tetra-acetic acid]",cells potentiated,"NAcC D2-MSNs [1]; BAPTA 10 mM internal, D1-MSN 50-Hz stimulation, Figure 7E",3/9
same,paired pulse ratio change after stimulation,NAcC D2-MSNs [2],lack of ability to detect a change in PPR
picrotoxin,increase in baseline ChAT firing frequency,"NAcC ChAT neurons; picrotoxin, on average, Figure S5F",1.37 ± 0.66 Hz
CN1CCN(CC(=O)N2c3ccccc3C(=O)Nc3cccnc32)CC1 [pirenzepine],"EPSC amplitude, %baseline (block of substance-P-induced potentiation)","NAcC D2-MSNs [1]; pirenzepine 1 μM, substance P 100 nM, Figures 6A, S6B",103.1% ± 12.95%
same,"EPSC amplitude, %baseline (block of substance-P-induced potentiation)","NAcC D2-MSNs [1]; pirenzepine 1 μM, substance P 1 μM, Figures 6A, S6B",89.88% ± 9.14%
same,synaptic properties in D2-MSNs,"NAcC D2-MSNs [1]; pirenzepine alone, Figure S6E",did not affect synaptic properties
same,ChAT firing rate at baseline and its enhancement due to substance P,"NAcC ChAT neurons; pirenzepine, Figures S6C, S6D",neither affected ChAT firing rate at baseline nor the enhancement in firing frequency due to substance P
same,AMPAR inward rectification caused by substance P or 50 Hz stimulation,"[3]; pirenzepine, Figures 6C, 6D",prevented this rectification
C[C@@H](O[C@H]1OCCN(Cc2n[nH]c(=O)[nH]2)[C@H]1c1ccc(F)cc1)c1cc(C(F)(F)F)cc(C(F)(F)F)c1 [aprepitant],concentration of maximal inhibition of receptor activity,[4],~10 µM
same,effect of antagonist alone on synaptic properties,NAcC D2-MSNs [1],"neither L-733,060 nor aprepitant altered synaptic properties"
same,"EPSC amplitude, %baseline (block of stimulation-induced potentiation)","NAcC D2-MSNs [1]; aprepitant 1 μM, single 5-s, 50-Hz train of D1-MSN stimulation, n = 8, p > 0.05, Figure 2G",98.02% ± 10.73%
same,spontaneous ChAT firing rate in the absence of substance P,NAcC ChAT neurons,did not have effects on spontaneous ChAT firing rate
same,stimulation-enhanced ChAT firing rate,"NAcC ChAT neurons; aprepitant 1 μM, n = 13, p > 0.05, Figure 5B","suppressed, but not completely blocked"
same,substance-P-enhanced ChAT firing rate,"NAcC ChAT neurons; aprepitant 1 μM, Figure S4H",suppressed
Oc1ccc2c3c1O[C@H]1c4[nH]c5c(c4C[C@@]4(O)[C@@H](C2)N(CC2CC2)CC[C@]314)C[C@@]1(O)[C@H]2Cc3ccc(O)c4c3[C@@]1(CCN2CC1CC1)[C@H]5O4 [norbinaltorphimine],"EPSC amplitude, %baseline (stimulation-induced depression)","NAcS D2-MSNs; norbinaltorphimine 400 nM, mean ± SEM, Figure S1H",61.56% ± 10.78%
CC[C@H](NC(=O)c1c(C)c(-c2ccccc2)nc2ccccc12)c1ccccc1 [SB-2220],"substance-P-enhanced ChAT firing rate, further block","NAcC ChAT neurons; addition of 1 μM NK3R antagonist SB-2220, Figure S4J",not blocked any further
"Cl.FC(F)(F)c1cc(CO[C@H]2CCCN[C@H]2c2ccccc2)cc(C(F)(F)F)c1 [L-733,060]",concentration of maximal inhibition of receptor activity,[4],~10 µM
same,"EPSC amplitude, %baseline (block of substance-P-induced potentiation)","NAcC D2-MSNs [1]; L-733,060 10 μM with substance P bath application, n = 9, p > 0.05, Figure 2B",101.1% ±7.07%
same,"EPSC amplitude, %baseline (block of stimulation-induced potentiation)","NAcC D2-MSNs [1]; L-733,060, 5 min of NAcC D1-MSN 50-Hz stimulation, transient depression, Figure S2B",79.52% ± 8.22%
same,effect of antagonist alone on synaptic properties,NAcC D2-MSNs [1],"neither L-733,060 nor aprepitant altered synaptic properties"
same,spontaneous ChAT firing rate in the absence of substance P,NAcC ChAT neurons,did not have effects on spontaneous ChAT firing rate
same,stimulation-enhanced ChAT firing rate,"NAcC ChAT neurons; L-733,060 10 μM, Figure S5C",blocked
same,substance-P-enhanced ChAT firing rate,"NAcC ChAT neurons; L-733,060 10 μM, Figures 4F, 4G",suppressed
same,concentration of maximal inhibition of enhanced ChAT firing,"NAcC ChAT neurons; against 100 nM substance P, Figure 4E",10 µM
